Eight molecules from ChEMBL document CHEMBL1201862, “PubChem BioAssay data set” (2004) can be followed below.

Broadly, the GI50 is the concentration that inhibits growth by half.

Among the test systems are TK-10; MDA-MB-231; BT-549; HCT-116; HCC 2998; SF-268; HL-60; NCI-H522; SK-MEL-28; NCI-H23; HT-29; A498; SK-OV-3; SF-539; LOX IMVI; DU-145; MOLT-4; CAKI-1; RPMI-8226.
What all share (assay): DTP human tumour cell line panel, 48 h

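In this assay, cells in 96-well plates receive the compound at five concentrations for 48 hours. Endpoints are linearly interpolated between the surrounding concentrations. At the GI50, growth is halved.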 Active and inactive are the calls of the source. No stated cut-off is given here; in the data, active = GI50 up to about 1.1 µM and inactive = higher. A value given as a limit tells only on which side of the number the result lay.

Turning to `CN(C)CCn1c(=O)c2ccc3c4c(nn3CCN(C)C)c3ccccc3n(c1=O)c24`, the GI50 with TK-10 is 0.578 µM (active); in the test on MDA-MB-231 it was 0.637 µM (active); in the test on BT-549, 1.84 µM (inactive); in the test on HCT-116, 0.193 µM (active); in the test with HCC 2998 it was 0.129 µM (active); in the test on SF-268, 0.211 µM (active). For the same molecule, the GI50 was 0.598 µM (active) with HL-60; < 0.0219 µM (active) with NCI-H522; 1.85 µM (inactive) in the test with SK-MEL-28; 0.449 µM (active) in the test with NCI-H23; < 0.123 µM (active) in the test on HT-29; 0.301 µM (active) in the test with A498. The GI50 is 0.412 µM (active) with SK-OV-3; 0.571 µM (active) with SF-539; 0.214 µM (active) in the test with LOX IMVI; 0.208 µM (active) in the test on DU-145; < 0.01 µM (active) in the test on MOLT-4; 0.0608 µM (active) in the test with CAKI-1.

Consider `CC(C)(C)OC(=O)N1CCc2c(n(C/C=C/c3ccccc3)[nH]c2=O)C1`, for which the GI50 with RPMI-8226 is 95.5 µM (inactive); in the test on TK-10 it was > 81.3 µM (inactive); with MDA-MB-231 it was > 100 µM (inactive); in the test on BT-549, > 100 µM (inactive); in the test on HCT-116, > 100 µM (inactive); in the test on HCC 2998 it was > 100 µM (inactive). In addition, the GI50 in the test on SF-268 is > 100 µM (inactive); in the test with HL-60, 27.8 µM (inactive); in the test on NCI-H522 it was > 51.2 µM (inactive); with SK-MEL-28, > 100 µM (inactive); in the test on NCI-H23, > 100 µM (inactive); with HT-29, > 100 µM (inactive). Besides, the GI50 is > 100 µM (inactive) in the test on A498; > 100 µM (inactive) in the test on SK-OV-3; > 100 µM (inactive) with SF-539; > 100 µM (inactive) in the test on LOX IMVI; > 87.9 µM (inactive) with DU-145; 33.6 µM (inactive) in the test with MOLT-4. Also, the GI50 with CAKI-1 is > 100 µM (inactive).

As to `NCCN1C(=O)CN=C(c2ccc(Cl)cc2)c2cc(Cl)ccc21`, the GI50 is 17.6 µM (inactive) with RPMI-8226; 16.1 µM (inactive) in the test with TK-10; 14.3 µM (inactive) with MDA-MB-231; 16 µM (inactive) in the test with BT-549; 16.2 µM (inactive) in the test with HCT-116; 16.5 µM (inactive) in the test on HCC 2998. Further, the GI50 with SF-268 was 14.4 µM (inactive); with HL-60 it was 16 µM (inactive); in the test on NCI-H522, 16.1 µM (inactive); in the test with SK-MEL-28, > 100 µM (inactive); in the test with NCI-H23 it was 18.1 µM (inactive); in the test on HT-29 it was 16.8 µM (inactive). For the same molecule, the GI50 with A498 is 19.1 µM (inactive); in the test on SK-OV-3, 22.4 µM (inactive); with SF-539, 17.4 µM (inactive); in the test on LOX IMVI, 16.2 µM (inactive); in the test on DU-145 it was 17.1 µM (inactive); with MOLT-4, 0.46 µM (active). Further, in the test on CAKI-1, the GI50 was 16.3 µM (inactive).

As to `COC(=O)c1ccc2n1C1CC3CC(CC2C3)C1`, the GI50 in the test on RPMI-8226 was 42.8 µM (inactive); in the test with TK-10, > 100 µM (inactive); in the test with MDA-MB-231 it was > 100 µM (inactive); in the test with BT-549, > 100 µM (inactive); in the test on HCT-116, 42.6 µM (inactive); in the test with HCC 2998, 91.2 µM (inactive). In addition, the GI50 is > 100 µM (inactive) in the test on SF-268; 15.3 µM (inactive) in the test on HL-60; > 100 µM (inactive) in the test on NCI-H522; > 100 µM (inactive) in the test with SK-MEL-28; 90.8 µM (inactive) in the test on NCI-H23; 31.5 µM (inactive) in the test on HT-29. Moreover, the GI50 with A498 is > 100 µM (inactive); in the test on SK-OV-3, > 100 µM (inactive); in the test with SF-539, > 100 µM (inactive); in the test with LOX IMVI it was > 100 µM (inactive); in the test with DU-145 it was > 100 µM (inactive); with MOLT-4 it was 57.5 µM (inactive). The GI50 in the test with CAKI-1 is > 100 µM (inactive).

With `Cc1ccc2c(c1)[nH]c(=S)n2C=C1C(=O)CC(C)(C)CC1=O`, the GI50 in the test with TK-10, with MDA-MB-231, in the test on BT-549, in the test with HCT-116, with HCC 2998 and in the test with SF-268 was > 100 µM (inactive) each time. For the same molecule, the GI50 with HL-60, in the test on NCI-H522, in the test with SK-MEL-28, in the test with NCI-H23, in the test with HT-29 and in the test with A498 was > 100 µM (inactive) throughout. Also, the GI50 in the test on SK-OV-3, with SF-539, in the test with LOX IMVI, in the test on DU-145, with MOLT-4 and in the test with CAKI-1 was > 100 µM (inactive) in each case.

Regarding `COc1cc2c(SCCN(C)C)nc3ccccc3c2c2ccccc12`, the GI50 is 1.76 µM (inactive) with RPMI-8226; 2.7 µM (inactive) with TK-10; 2.25 µM (inactive) in the test with MDA-MB-231; 5.7 µM (inactive) in the test on BT-549; 1.67 µM (inactive) in the test with HCT-116; 1.47 µM (inactive) in the test on HCC 2998. In addition, the GI50 with SF-268 was 2.04 µM (inactive); in the test on HL-60, 0.193 µM (active); in the test with NCI-H522, 1.68 µM (inactive); with SK-MEL-28 it was 1.78 µM (inactive); with NCI-H23, 5.46 µM (inactive); in the test with HT-29 it was 2.64 µM (inactive). Also, the GI50 with A498 is 10.7 µM (inactive); in the test on SK-OV-3 it was 10.4 µM (inactive); in the test with SF-539, 1.74 µM (inactive); in the test with LOX IMVI, 1.69 µM (inactive); with DU-145, 3.71 µM (inactive); in the test on MOLT-4 it was 1.54 µM (inactive). The GI50 in the test on CAKI-1 was 1.88 µM (inactive).

As for `COc1cc(/C=C2\CC3C4CC[C@H]5C[C@@H](O)CC[C@]5(C)C4CC[C@]3(C)\C2=N\O)cc(OC)c1OC` (some centres undefined), the GI50 in the test with RPMI-8226 is 4.23 µM (inactive); in the test on TK-10 it was 16.8 µM (inactive); with MDA-MB-231 it was 14.3 µM (inactive); with BT-549, 14.9 µM (inactive); in the test with HCT-116, 6.19 µM (inactive); in the test on HCC 2998, 10.1 µM (inactive). Also, the GI50 with SF-268 was 24 µM (inactive); with HL-60, 3.46 µM (inactive); with NCI-H522, 13.1 µM (inactive); in the test with SK-MEL-28, 14.7 µM (inactive); with NCI-H23, 15.6 µM (inactive); in the test on HT-29, 7.36 µM (inactive). The GI50 is 11.2 µM (inactive) in the test with A498; 19.2 µM (inactive) in the test on SK-OV-3; 10.8 µM (inactive) in the test on SF-539; 11.5 µM (inactive) in the test with LOX IMVI; 13.1 µM (inactive) in the test with DU-145; 5.33 µM (inactive) with MOLT-4. The GI50 with CAKI-1 is 4.09 µM (inactive).

`O=C(CCc1ccc(O)c(O)c1)c1ccc(O)c(O)c1O`: the GI50 in the test on TK-10 is 19 µM (inactive); in the test with MDA-MB-231, 20.3 µM (inactive); in the test with BT-549, > 10 µM (inactive); with HCT-116, 37.3 µM (inactive); with HCC 2998, 49.8 µM (inactive); in the test on SF-268, 16.6 µM (inactive). For the same molecule, the GI50 was 11.5 µM (inactive) in the test with HL-60; 11.9 µM (inactive) in the test on NCI-H522; 60.7 µM (inactive) in the test with SK-MEL-28; 21.4 µM (inactive) in the test on NCI-H23; 26.7 µM (inactive) in the test on HT-29; 17.9 µM (inactive) in the test on A498. In addition, the GI50 is 52.2 µM (inactive) with SK-OV-3; 15.5 µM (inactive) in the test with SF-539; 27.7 µM (inactive) with LOX IMVI; 19.7 µM (inactive) with DU-145; 22.3 µM (inactive) in the test with MOLT-4; 17.8 µM (inactive) with CAKI-1.
